Columns and labels:
[1] = test system: bone marrow-derived DCs co-cultured with CD4+ T cells; assay: Bone marrow-derived DCs co-cultured 48 hours with purified CD4+ T cells; type: cell-based; settings: 48 hours co-culture (not shown)
Experimental: FIGS. 17A-C show α-T and γ-T have opposing effects in regulation of DC development and function in vitro. FIGS. 17A and B show results from bone marrow from postnatal day 10 neonate (with basal diet) that was cultured with GM-CSF and with 80 μM αT (FIG. 17B) or 2 μM γT (FIG. 17A) for 8 days and analyzed for DC subsets by immunolabeling/flow cytometry. *, p<0.05 compared to DMSO group. **, p<0.05 compared to indicated group. […] Expression by qPCR. There was no effect on cell viability (not shown). n=3. **, p<0.05 compared to all other groups. *, p<0.05 compared to DMSO group.

[2] = test system: OVA-challenged pups from allergic mothers; assay: OVA-induced allergic inflammation in pups from allergic mothers given D-α-tocopherol-supplemented diet
Experimental: C57BL/6 female mice were maintained on chow diet. The mice were sensitized by intraperitoneal injection (200 μl) of ovalbumin (OVA) grade V (5 μg)/potassium aluminum sulfate (alum, 1 mg) or saline/alum (1 mg) on days 0 and 7 (26, 28, 46). The mice were exposed to nebulized saline or 3% (wt/vol) OVA in saline for 15 min on three consecutive days at 8, 12, and 16 wk of age. At 18 wk old, the female mice were challenged one time with 3% OVA (26, 28, 46) and then fed basal diet or diet supplemented with D-α-tocopherol (500 mg α-tocopherol/kg diet) (Table 1) (42, 52, 71). […] Ten days after starting the tocopherol-supplemented diet, females were mated with normal males. Three-day-old pups were sub-optimally sensitized by treating with only one 50-μl ip injection (rather than two injections) of 5 μg OVA/1 mg alum (26, 28, 33). At 10, 11, and 12 days old, the pups were challenged for 15 min with 3% OVA (FIG. 1A). At 13 days old, the pups were weighed and killed, and tissues were collected. Serum was collected for analysis of IgE, liver was for tocopherol analysis, lung lavage was for leukocytes and cytokines, and lung tissue was for histology, flow cytometry, and qPCR of mediators of allergic inflammation. Liver was extracted and examined for tocopherols by high-pressure liquid chromatography with electrochemical detection as we previously described (7, 50). Bronchoalveolar lavage (BAL) cells were stained and counted as previously described (3). […] Lung tissue sections were fixed in cold methanol for 15 min, rehydrated for 60 min with PBS, and stained with eosin and methyl green as we previously described (6).
In these studies, allergic responses were induced in 6-wk-old adult female mice by sensitization with OVA/alum at weeks 0 and 1 and challenge with OVA or saline three times a week during weeks 4, 8, 12, and 18 as in the timeline in FIG. 1A. Next, the females were supplemented with D-α-tocopherol at the time of mating (FIG. 1A). The mothers were given a standard basal diet (45 mg D-α-tocopherol/kg diet) or supplemented with 150, 250, or 500 mg D-α-tocopherol/kg diets (Table 1). […] All pups from the mothers were challenged with a suboptimal regimen of OVA as previously described (46); the pups received one, instead of two, sensitizations with OVA-alum and then received three challenges with aerosolized OVA (FIG. 1A).

[3] = test system: lung tissue cytokines and eotaxins; assay: Pup lung cytokines, chemokines, IDO and MHCII by qPCR; BAL CCL24 by ELISA; type: in vivo, C57BL/6 mice
Experimental: Total RNA was isolated from 50 to 100 mg lung tissue using the QIAGEN RNeasy Fibrous Tissue Mini Kit. cDNA was prepared using a SuperScript II RNase H-Reverse Transcriptase kit (Invitrogen) and analyzed by PCR on an ABI 7300 Thermal Cycler (Applied Biosystems). Taqman probes and Taqman Universal Master Mix were used as directed (Applied Biosystems). CCL24 in the BAL also was examined by ELISA (Raybiotech).

[4] = test system: pup lung dendritic cell subsets; assay: Flow cytometry analysis of pup lung dendritic cell subsets; type: in vivo, C57BL/6 mice
Experimental: (§1) Following BAL of pups, lungs were removed for analysis of dendritic cell types by flow cytometry. In the fetus, hematopoiesis occurs in the fetal livers. Gestational day 18 fetal livers were collected for analysis of fetal liver DCs. Briefly, tissues were minced and suspended in 5 ml of RPMI solution containing 1 mg/ml collagenase D (Roche) and 0.2 mg/ml DNase I (Roche) at 37° C. with agitation. After 1 h, samples were filtered through sterile 70-μm mesh tissue, centrifuged, and resuspended in 5% FBS-RPMI solution. Red blood cells were lysed in 1×BD PharmLyse Lysing Buffer (BD Biosciences), and the cells were washed two times in PBS. All centrifugation steps were carried out at 300 g for 5 min. Three million cells were used per sample for immunolabeling.
The cells were stained for live/dead exclusion in 500 μl PBS containing 0.25 μl of Aqua fluorescent reactive dye (Molecular Probes, Invitrogen) for 20 min at room temperature in the dark. Next, FC receptors were blocked by incubating the cells in 50 μl flow cytometry staining buffer (Biolegend) with 0.75 μl purified rat anti-mouse CD16/CD32 Mouse BD FC Block (no. 553142; BD Pharmingen) for 10 min at 4° C.
To prepare the antibodies for immunolabeling, for each sample equivalent, an antibody stock was prepared by adding the following antibodies to 50 μl of flow cytometry buffer: 1) Live/Dead Aqua fluorescent dye (no. L34957; Molecular Probes, Invitrogen), 0.25 μl/sample; 2) CD45, rat anti-mouse FITC-conjugated, 0.5 mg/ml, clone 30-F11 (no. 103107; Biolegend), 0.31 μl/sample; 3) CD11b, rat anti-mouse PE-CF594-conjugated, 0.2 mg/ml, clone M1/70 (no. 562317; BD Biosciences), 0.05 μl/sample; 4) Ly-6C, rat anti-mouse APC/Cy7-conjugated, 0.2 mg/ml, clone HK1.4 (no. 128025; Biolegend), 0.4 μl/sample; 5) CD11c, Armenian hamster anti-mouse PE/Cy7-conjugated, 0.2 mg/ml, clone N418 (no. 117317; Biolegend), 0.2 μl/sample; 6) I-A/I-E (MHCII), rat anti-mouse PerCP/Cy5.5-conjugated, 0.2 mg/ml, clone M5/114.15.2 (no. 107625; Biolegend), 0.1 μl/sample; 7) CD103, Armenian hamster anti-mouse Brilliant Violet 421-conjugated, clone 2E7 (no. 121421; Biolegend), 0.2 μl/sample; 8) CD317 (PDCA-1), rat anti-mouse APC-conjugated, 0.2 mg/ml, clone 927 (no. […]
(§2) The cells were examined with a BD LSRII flow cytometer (BD Biosciences). […] Fluorescence Minus One staining controls were used as negative controls to identify gates for populations of interest. The following subpopulations of DCs were analyzed: 1) resident conventional DCs: CD11b+Ly6C−CD11chighMHCIIhigh; 2) CD11b+ alveolar DCs: CD11b+Ly6C−CD11c+MHCII−; 3) inflammatory DCs: CD11b+Ly6C+CD11c+MHCII+; 4) plasmacytoid DCs (pDCs): CD11b−Ly6C−CD11clowPDCA-1+MHCII−; 5) resident CD103+DCs: CD11b−Ly6C−CD11c+CD103+MHCII−; and 6) CD11b−alveolar DCs: CD11b−Ly6C−CD11c+MHCII+/−. […]

[5] = test system: fetal liver dendritic cell subsets; assay: Flow cytometry analysis of gestational day 18 fetal liver dendritic cells; type: in vivo, C57BL/6 mice
Experimental: as §1, with “immunolabeling. […]” for “immunolabeling.”
as §2

[6] = test system: bone marrow-derived CD11c+CD11b+ DCs; assay: Bone marrow-derived dendritic cell culture with GM-CSF in vitro; type: cell-based, mice; settings: 80 μM vs DMSO
Experimental: For bone marrow-derived postnatal day 10 pup dendritic cell cultures, a single cell suspension of bone marrow from 10-day-old mice was placed in RPMI 1640, glutamine, HEPES, gentamycin sulfate, penicillin/streptomycin, and 10% heat-inactivated FCS. The bone marrow cells were treated with the DMSO solvent control (0.01%) or D-α-tocopherol (80 μM) as we previously described for in vitro treatment with D-α-tocopherol (7). The cells were stimulated with 5 ng granulocyte macrophage colony-stimulating factor (GM-CSF) per milliliter. The culture medium with tocopherol and GM-CSF was replaced on days 2, 4, and 7. […]

[7] = Liver tocopherol measurement by HPLC with electrochemical detection; type: in vivo, C57BL/6 mice
Experimental: Diets or livers were weighed and homogenized in absolute ethanol with 5% ascorbic acid on ice. The internal standard tocol is added to each […] to determine recovery. The homogenate or plasma was extracted with an equal volume of hexane with 0.37 wt/100 wt butylated hydroxytoluene to prevent oxidation and increase recovery of tocopherol. The samples were vortexed and then centrifuged for 10 min at 9,000 g at 4° C. The hexane layer was dried under nitrogen and stored at −20° C. The samples were reconstituted in methanol, and then tocopherols were separated using a reverse-phase C18 HPLC column (Hewlett Packard) and HPLC (Waters) with 99% methanol-1% water as a mobile phase with detection with an electrochemical detector (potential 0.7 V) (Waters).

[8] = Tissue γ-tocopherol after maternal γ-tocopherol-supplemented diet; type: in vivo, C57BL/6 mice
Experimental: (§3) C57BL/6 female mice were sensitized with OVA/alum and challenged with OVA (150 μg) as in the timeline below. Then, the cages were supplied with basal diet (45 mg γ-tocopherol/kg diet) or γ-tocopherol supplemented diets (250 mg γ-tocopherol/kg diet) and males were introduced for breeding. The pups were administered a suboptimal dose of OVA/alum (i.e., one i.p. with OVA/alum and 3 challenges for 10 min with 3% OVA as previously described (Am J Respir Cell Mol Biol 2011. 44: 285 and Am J PhysiolLung Cell MolPhysiol. 2014, 15; 307:L482-96; both of which are herein incorporated by reference in their entireties).

[9] = test system: OVA-challenged pups from allergic mothers; assay: Maternal γ-tocopherol supplementation of allergic mothers, suboptimal OVA challenge of pups; type: in vivo, C57BL/6 mice; settings: for numbers of IRF4+CD11b+CD11c+ dendritic cells in pup lung: OVA-challenged pups from allergic mothers; for inflammatory mediators in OVA-treated pup lungs: protein array and ELISA of minced lung culture supernatants
Experimental: as §3

[10] = maternal supplementation, discussion statement
[11] = maternal supplementation during pregnancy/lactation, first litter, PND13, qPCR
[12] = second litter, 500 mg/kg maternal diet, OVA-challenged pups from allergic mothers
[13] = PND13 OVA-challenged pups, maternal supplementation
[14] = bone marrow from 10-day-old neonates, 8 days
[15] = 250 mg γ-tocopherol/kg maternal diet
[16] = 250 mg γ-tocopherol/kg maternal diet, listed as γT
[17] = 250 mg γ-tocopherol/kg maternal diet, allergic mothers

SMILES: Cc1c(C)c2c(c(C)c1O)CC[C@@](C)(CCC[C@H](C)CCC[C@H](C)CCCC(C)C)O2 [D-α-tocopherol, D-α-Tocopherol]
- cell viability ([1]; 80 μM α-T): no effect
- percent eosinophils in the BAL ([2]; 150 mg α-tocopherol/kg maternal diet, pups PND13): partially inhibited
- percent eosinophils in the BAL ([2]; 250 mg α-tocopherol/kg maternal diet, pups PND13): greatest inhibition
- development of the allergic response in cross-fostered neonates ([2]; 250 mg/kg diet during pregnancy only, pups cross-fostered to allergic mothers with basal diet): sufficient to inhibit
- allergic responses in cross-fostered neonates ([2]; 250 mg/kg diet supplementation during lactation only, cross-fostered): reduced
- percent eosinophils in the BAL ([2]; 500 mg α-tocopherol/kg maternal diet, pups PND13): greatest inhibition
- inhibition of BAL eosinophils in the OVA-challenged pups ([2]; 500 mg/kg diet started at second mating, second litter of allergic mothers): > 90%
- OVA-specific serum IgE in pups ([2]; among the D-α-tocopherol treatment groups, ELISA): not different
- allergic inflammation in the OVA-stimulated pups from allergic mothers ([2]; maternal diet 150, 250 or 500 mg/kg diet vs basal 45 mg/kg, pregnancy and lactation, PND13 BAL): dose-dependent inhibition
- eosinophils in the lung tissue of OVA-challenged pups ([2]; maternal supplementation of allergic female mice, eosin/methyl green histology): reduced
- allergic responses in the lung (BAL eosinophils and monocytes) ([2]; maternal supplementation, PND13 pups of the liver tocopherol/DC experiment (FIG. 9D)): blocked
- body weight [2, 10]: did not affect
- lung weight [2, 10]: did not affect
- pup gender distribution ([2]; maternal supplemented diets): no effect
- pup numbers ([2]; maternal supplemented diets): no effect
- pup weight ([2]; maternal supplemented diets, pups PND13): no effect
- OVA-induced pup lung mRNA expression of CCL11 [3, 11]: inhibited
- OVA-induced pup lung mRNA expression of CCL24 [3, 11]: inhibited
- OVA-induced pup lung mRNA expression of IL-4 [3, 11]: inhibited
- OVA-induced pup lung mRNA expression of IL-33 [3, 11]: inhibited
- protein expression of CCL24 in BAL supernatant ([3]; maternal supplementation during pregnancy/lactation, PND13, ELISA): inhibited
- whole lung expression of IFNγ [3, 12]: no effect
- whole lung expression of IL-2 [3, 12]: no effect
- whole lung expression of IL-10 [3, 12]: no effect
- whole lung expression of MHCII [3, 12]: no effect
- whole lung expression of TNF-α [3, 12]: no effect
- whole lung mRNA expression of CCL11 [3, 12]: reduced
- whole lung mRNA expression of CCL24 [3, 12]: reduced
- whole lung mRNA expression of IL-4 [3, 12]: reduced
- whole lung mRNA expression of IL-33 [3, 12]: reduced
- whole lung mRNA expression of TSLP [3, 12]: reduced
- lung tissue expression of IDO ([3]; second litter, 500 mg/kg maternal diet, pups from allergic mothers and saline mothers): reduced
- lung tissue number of CD11c+CD11b+ subsets of DCs, including resident conventional DCs, mDCs, and CD11b+ alveolar DCs [4, 13]: significantly reduced
- pup lung CD11c+CD11b− subsets of cells, including pDCs, resident CD103+DCs, CD11b− alveolar DCs, and alveolar macrophages [4, 13]: did not alter
- mean fluorescence intensity for MHCII, CD80, and CD86 on CD11c+CD11b+DCs and CD11c+CD11b−DCs ([4]; pup lung, among the groups (data not shown)): not different
- pup lung pDC-to-cDC ratio ([4]; supplementation of allergic mothers, OVA-challenged pups, 0.3 with basal diet): 0.53
- fetal liver CD11c+CD11b− subsets ([5]; maternal supplementation (data not shown)): not altered
- number of CD11c+CD11b+DCs in fetal livers, including phenotype of mDCs and of resident DCs ([5]; supplementation of allergic mothers): reduced
- percent of viable cells in the culture ([6]; 8 days (data not shown)): without affecting
- number of CD45+CD11b+CD11+DCs [6, 14]: reduced
- number of cells with resident DC phenotype (CD45+CD11b+CD11c+Ly6c−MHCII−DCs) [6, 14]: reduced
- increase of pup liver D-α-tocopherol with maternal supplementation ([7]; PND13 pup liver): 2.5 fold

SMILES: Cc1c(O)cc2c(c1C)O[C@](C)(CCC[C@H](C)CCC[C@H](C)CCCC(C)C)CC2 [γ-tocopherol]
- cell viability ([1]; 2 μM γ-T): no effect
- tissue γ-tocopherol in mothers [8]: elevates
- tissue γ-tocopherol in pups [8]: elevates
- number of BAL leukocytes in OVA-challenged pups from allergic mothers [9, 15]: increases
- number of pups from supplemented allergic mothers [9, 15]: fewer pups
- pup responses to allergen challenge ([9]; 250 mg γ-tocopherol/kg maternal diet during pregnancy/lactation, allergic mothers): elevated
- numbers of IRF4+CD11b+CD11c+ dendritic cells in pup lung [9, 15]: increases
- numbers of IRF4+CD11b+CD11c+ dendritic cells in pup lung [9, 16]: elevated numbers
- numbers of CD11b expressing subsets of CD11c dendritic cells in pup lung [9, 17]: increased numbers
- numbers of pup lung eosinophils [9, 17]: increased numbers
- number of allergic mothers with pups ([9]; 250 mg γ-tocopherol/kg maternal diet, percentage of mated females that had pups): reduced
- inflammatory mediators in OVA-treated pup lungs [9, 15]: increases
- inflammatory mediators in OVA-treated pup lungs [9, 16]: increased
- liver γ-tocopherol ([7]; all groups of the D-α-tocopherol diet experiment (data not shown)): < 0.003 μg γ-tocopherol/g liver tissue
